{"source": "patent US11820766B2", "about": "“Monoacylglycerol lipase modulators” (Janssen Pharmaceutica NV, priority 2018, dated 2023)", "note": "Counter-ions that a name gives are not always drawn."}
{"molecular_target": "T1, human MGL from HeLa cells (Homo sapiens, UniProt Q99685)", "T1 construct": "combining endogenously expressed MGL from HeLa cells with test compounds; endogenous in cells; host or cells: HeLa cells / cell homogenates", "T1 sequence (Q99685 1-303)": "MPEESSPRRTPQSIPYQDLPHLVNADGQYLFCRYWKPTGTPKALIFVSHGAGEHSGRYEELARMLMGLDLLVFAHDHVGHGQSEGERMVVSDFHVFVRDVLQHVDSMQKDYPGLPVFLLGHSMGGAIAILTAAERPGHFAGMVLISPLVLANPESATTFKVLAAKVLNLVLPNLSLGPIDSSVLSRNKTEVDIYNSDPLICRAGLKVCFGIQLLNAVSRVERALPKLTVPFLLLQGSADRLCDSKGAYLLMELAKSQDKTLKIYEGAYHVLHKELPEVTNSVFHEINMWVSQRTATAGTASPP", "experiment": "In vitro MGL activity assay: [glycerol-1,3-3H]-oleyl glycerol cleavage by MGL from HeLa cells", "assay_type": "biochemical", "conditions": "300 nM [Glycerol-1,3-3H]-oleyl glycerol, one hour", "excerpt": "MGL is the predominant hydrolase in HeLa cells/cell homogenates.", "units": {"IC50": "µM"}}
{"smiles": "C[C@H]1c2nn(C)c(-c3cc(F)c(F)c(F)c3)c2CCN1C(=O)c1ccn2ccncc12", "note": "[Example 416, [(7S)-2,7-Dimethyl-3-(3,4,5-trifluorophenyl)-5,7-dihydro-4H-pyrazolo[3,4-c]pyridin-6-yl]-pyrrolo[1,2-a]pyrazin-8-yl-methanone]", "IC50": 0.00718}
{"smiles": "Cc1cc(C)n2ccc(C(=O)N3CCc4c(nn(C)c4-c4cc(F)c(F)c(F)c4)[C@@H]3C)c2n1", "note": "[Example 417, (2,4-Dimethylpyrrolo[1,2-a]pyrimidin-8-yl)-[(7S)-2,7-dimethyl-3-(3,4,5-trifluorophenyl)-5,7-dihydro-4H-pyrazolo[3,4-c]pyridin-6-yl] methanone]", "IC50": 0.126}
{"smiles": "Cc1ncc2ccc(C(=O)N3CCc4c(nn(C)c4-c4cc(F)c(F)c(F)c4)[C@@H]3C)cn12", "note": "[Example 418, [(7S)-2,7-Dimethyl-3-(3,4,5-trifluorophenyl)-5,7-dihydro-4H-pyrazolo[3,4-c]pyridin-6-yl]-(3-methylimidazo[1,5-a]pyridin-6-yl)methanone]", "IC50": 0.0146}
{"smiles": "Cc1ccn2cnc(C(=O)N3CCc4c(nn(C)c4-c4cc(F)c(F)c(F)c4)[C@@H]3C)c2c1", "note": "[Example 419, [(7S)-2,7-Dimethyl-3-(3,4,5-trifluorophenyl)-5,7-dihydro-4H-pyrazolo[3,4-c]pyridin-6-yl]-(7-methylimidazo[1,5-a]pyridin-1-yl)methanone]", "IC50": 0.192}
{"smiles": "C[C@H]1c2nn(C)c(-c3cc(F)c(F)c(F)c3)c2CCN1C(=O)c1ncn2ccccc12", "note": "[Example 420, [(7S)-2,7-Dimethyl-3-(3,4,5-trifluorophenyl)-5,7-dihydro-4H-pyrazolo[3,4-c]pyridin-6-yl]-imidazo[1,5-a]pyridin-1-yl-methanone]", "IC50": 0.0591}
{"smiles": "C[C@H]1c2nn(C)c(-c3cc(F)c(F)c(F)c3)c2CCN1C(=O)c1nc(C2CC2)n2ccccc12", "note": "[Example 421, (3-Cyclopropylimidazo[1,5-a]pyridin-1-yl)-[(7S)-2,7-dimethyl-3-(3,4,5-trifluorophenyl)-5,7-dihydro-4H-pyrazolo[3,4-c]pyridin-6-yl]methanone]", "IC50": 0.00666}
{"smiles": "C[C@H]1c2nn(C)c(-c3cc(F)c(F)c(F)c3)c2CCN1C(=O)c1ccnc2[nH]ncc12", "note": "[Example 422, [(7S)-2,7-Dimethyl-3-(3,4,5-trifluorophenyl)-5,7-dihydro-4H-pyrazolo[3,4-c]pyridin-6-yl]-(1H-pyrazolo[3,4-b]pyridin-4-yl)methanone]", "IC50": 0.0459}
{"smiles": "C[C@H]1c2nn(C)c(-c3cc(F)c(F)c(F)c3)c2CCN1C(=O)c1cnc2[nH]ncc2c1", "note": "[Example 423, [(7S)-2,7-Dimethyl-3-(3,4,5-trifluorophenyl)-5,7-dihydro-4H-pyrazolo[3,4-c]pyridin-6-yl]-(1H-pyrazolo[3,4-b]pyridin-5-yl)methanone.TFA salt]", "IC50": 0.041}
{"smiles": "Cc1cc(C(=O)N2CCc3c(nn(C)c3-c3cc(F)c(F)c(F)c3)[C@@H]2C)c2cnn(C)c2n1", "note": "[Example 424, (1,6-Dimethylpyrazolo[3,4-b]pyridin-4-yl)-[(7S)-2,7-dimethyl-3-(3,4,5-trifluorophenyl)-5,7-dihydro-4H-pyrazolo[3,4-c]pyridin-6-yl]methanone]", "IC50": 0.0107}
{"smiles": "Cc1nn(C)c2nccc(C(=O)N3CCc4c(nn(C)c4-c4cc(F)c(F)c(F)c4)[C@@H]3C)c12", "note": "[Example 425, (1,3-Dimethylpyrazolo[3,4-b]pyridin-4-yl)-[(7S)-2,7-dimethyl-3-(3,4,5-trifluorophenyl)-5,7-dihydro-4H-pyrazolo[3,4-c]pyridin-6-yl]methanone]", "IC50": 0.0681}
{"smiles": "C[C@H]1c2nn(C)c(-c3cc(F)c(F)c(F)c3)c2CCN1C(=O)c1n[nH]c2ncccc12", "note": "[Example 426, [(7S)-2,7-Dimethyl-3-(3,4,5-trifluorophenyl)-5,7-dihydro-4H-pyrazolo[3,4-c]pyridin-6-yl]-(1H-pyrazolo[3,4-b]pyridin-3-yl)methanone]", "IC50": 0.0145}
